These results are taken from patent US20080221021A1, “Novel Corticotropin-Releasing Factor Receptor 1 (Crfr1) Agonist” (Max-Planck-Gesellschaft Zur Forderung Der, priority 2004, published 2008).

Data set [1] concerns C57BL/6J mice. The data set can be described thus: Elevated plus-maze test, intraseptal (i.s.) injection. It is filed as in vivo, mouse. As to conditions: 100 ng into lateral septum (i.s.), 30 min before EPM, vs aCSF. How it is done: (§1) Nine-week old male C57BL/6J (Centre D'Elevage Janvier, Sultzfeld, France) were individually housed in macrolon cages according to the recommendations of the Society for Laboratory Animal Science (Germany). All experiments were carried out in accordance with the European Council Directive (86/609/EEC) with the permission of the Animal Protection Law enforced by the District Government of Braunschweig, State of Lower Saxony, Germany, which is in full agreement with the APA ethical guidelines. All efforts were made to minimize animal suffering. The number of mice per group was 9-11.
All peptides were dissolved in aCSF except for the CRFR2-selective antagonist antisauvagine-30 (aSvg-30) (20) that was initially dissolved in 10 mM aqueous acetic acid and diluted with the same volume of two-fold concentrated aCSF. The final pH of the peptide solutions was 7.4. The exact peptide concentration of the injection solutions was determined by amino acid analysis with a Beckman HPLC analyzer system 6300. […]
The elevated plus-maze (EPM) behavior of C57BL/6J mice cannulated in the lateral ventricles or lateral intermediate septal area (23) was investigated 30 min after injection of the CRFR1 agonist under investigation for 5 min in the EPM test (24). […] The behavior of the mice was recorded by a video camera connected to a PC and analyzed by the Technical & Scientific Equipment software VIDEOMOT 2. […]

The next data set has as its target T1, rCRFR1 (Rattus norvegicus, UniProt P35353).
T1 construct: expressed in transfected cells
T1 sequence (P35353 24-415): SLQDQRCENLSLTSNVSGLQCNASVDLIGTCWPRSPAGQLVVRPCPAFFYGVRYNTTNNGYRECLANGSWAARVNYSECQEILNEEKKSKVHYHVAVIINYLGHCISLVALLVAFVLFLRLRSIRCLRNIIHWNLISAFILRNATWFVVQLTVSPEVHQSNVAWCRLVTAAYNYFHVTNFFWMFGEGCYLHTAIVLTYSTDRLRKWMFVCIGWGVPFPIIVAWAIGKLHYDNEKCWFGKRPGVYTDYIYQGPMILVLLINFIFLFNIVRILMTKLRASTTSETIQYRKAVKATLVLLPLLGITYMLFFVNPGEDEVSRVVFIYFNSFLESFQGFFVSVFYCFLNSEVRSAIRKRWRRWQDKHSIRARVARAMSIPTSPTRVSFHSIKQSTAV
Briefly: Agonist-induced intracellular cAMP accumulation in HEK 293 cells producing rCRFR1. The data set is classed as cell-based. How it is done:
(§2) The biological potency of cortagine and OCRF was evaluated by the determination of the EC50 values for agonist-induced intracellular accumulation of cAMP in HEK 293 cells producing either rCRFR1 or mCRFR2β.
(§3) The HEK 293 cells were plated into 24 well cell culture plates and stimulated as described (21) using increasing concentrations of the agonists under investigation. Intracellular cAMP was measured with the Biotrak™ cAMP [^125I] SPA system (Amersham Pharmacia Biotech) according to the manufacturer's product manual.
A general note: Cyclic AMP is a second messenger, typically raised through Gs and lowered through Gi signalling.

A further data set deals with T2, mCRFR2β (Mus musculus, UniProt Q60748).
T2 construct: expressed in transfected cells
T2 sequence (Q60748 1-431 isoform Q60748-2): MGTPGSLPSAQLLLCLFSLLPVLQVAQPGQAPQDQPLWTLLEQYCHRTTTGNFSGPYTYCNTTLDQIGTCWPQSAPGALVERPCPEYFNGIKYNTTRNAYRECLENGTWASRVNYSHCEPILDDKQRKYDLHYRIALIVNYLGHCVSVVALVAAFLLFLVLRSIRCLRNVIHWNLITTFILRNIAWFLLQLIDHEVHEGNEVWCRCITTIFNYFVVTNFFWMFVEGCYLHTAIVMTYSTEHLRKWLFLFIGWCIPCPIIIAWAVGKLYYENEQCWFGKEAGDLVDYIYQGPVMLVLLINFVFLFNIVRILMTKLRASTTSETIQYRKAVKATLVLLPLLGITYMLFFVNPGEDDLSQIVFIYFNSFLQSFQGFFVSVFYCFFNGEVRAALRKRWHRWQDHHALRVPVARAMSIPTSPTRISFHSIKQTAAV
Briefly: Agonist-induced intracellular cAMP accumulation in HEK 293 cells producing mCRFR2β. As to conditions: in words. The data set is classed as cell-based. Here is the method:
as §2, §3

Data set [2] is described as follows: Maximum solubility in aCSF by amino acid analysis. The data set is classed as physicochemical. As to conditions: pH 7.4. How it is done: After dissolving the peptides in artificial cerebrospinal fluid (aCSF; 124 mM NaCl, 26.4 mM NaHCO3, 10 mM glucose, 3.3 mM KCl, 2.5 mM CaCl2 , 2.4 mM MgSO4 , 1.2 mM KH2PO4) at pH=7.4, the maximum solubility cmax was determined by amino acid analysis as described (21). The isoelectric point of the peptides was determined by isoelectric focusing (IEF) as described (21) with a Bio-Rad IEF cell system using Bio-Rad IEF strips in the pH range 3-10.

The test system of data set [3] is C57BL/6J mice. Briefly: Elevated plus-maze test, i.c.v. injection. It is filed as in vivo, mouse. As to conditions: for anxiety-like behavior (time spent in open arms, number of open arm entries) / locomotor activity (total distance crossed): 30 min before EPM, vs aCSF. How it is done: as §1
(§4) All peptides were dissolved in aCSF except for the CRFR2-selective antagonist antisauvagine-30 (aSvg-30) (20) that was initially dissolved in 10 mM aqueous acetic acid and diluted with the same volume of two-fold concentrated aCSF. The final pH of the peptide solutions was 7.4. The exact peptide concentration of the injection solutions was determined by amino acid analysis with a Beckman HPLC analyzer system 6300. Total hydrolysis of the peptides was carried out in the presence of 1 nmol norvaline as internal standard with 6 M HCl for 24 h at 100° C.
The elevated plus-maze (EPM) behavior of C57BL/6J mice cannulated in the lateral ventricles or lateral intermediate septal area (23) was investigated 30 min after injection of the CRFR1 agonist under investigation for 5 min in the EPM test (24). The CRFR2-selective antagonist aSvg-30 in aCSF or aCSF alone were injected 15 min before agonist administration. The behavior of the mice was recorded by a video camera connected to a PC and analyzed by the Technical & Scientific Equipment software VIDEOMOT 2. The time spent, distance crossed, and number of entries in the open arms, closed arms, and center were recorded. The cannular placement was confirmed for each mouse by histological examination of the brains after methylene blue injection (23). The behavioral data are expressed as mean±SEM, and were analyzed using a two- and one-way ANOVA, with Bonferroni/Dunn test applied, post hoc, for individual between-group comparisons at the p<0.05 level of significance. Shift of preference from the open to the closed arms was interpreted as an increase of anxiety-like behavior. Locomotor activity was determined with this test by the distance travelled.

Data set [4] deals with C57BL/6J mice. The data set can be described thus: Forced swim test, i.c.v. injection. It is filed as in vivo, mouse. How it is done: as §1, §4
For the forced swim test (FST), C57BL/6J mice cannulated in the lateral ventricles were subjected to swim sessions in individual glass cylinders (height 39 cm, diameter 21.7 cm) containing water, 15-cm deep, at 23-25° C. On day 1, all animals were placed in the cylinder for a preswim session of 15 min. On the test day 24 h later (day 2), the mice were subjected to a testswim session for 6 min. The water was changed between subjects. All testswim sessions were recorded by a video camera positioned directly above the cylinder. A component observer blind to treatment scored the videotapes. The behavioral measure scored was the duration of immobility, defined as time spent still or only using righting movements to keep the head over water. An increase in immobility time was interpreted as an increase of depression-like behavior. In all behavioral experiments, the cannula placement was confirmed for each mouse by histological examination of the brains after methylene blue injection (23). The behavioral data are expressed as mean±SEM, and were analysed using a two- and one-way ANOVA, with Bonferri/Dunn test applied, post hoc, for individual between-group comparisons at the p<0.05 level of significance.

Where [5] appears, read: i.c.v., two-way ANOVA over doses, EPM.

“Also recorded” adds a separate entry of the source. Where no end group is shown, it is not given here.

On to “[Glu^21, Ala^40] [Svg^1-12]x[h/rCRF^14-30]x[Svg^30-40] (XGPPISIDLSLELLREVLEMERAEQLAQQAANNRLLLDTA; X not resolved here; ends and bridges not checked; also: Glx at position 1 not given here (Gln/Glu/pGlu)) [cortagine]”, for which the “anxiety-like behavior (time spent in open arms, number of open arm entries)” value is reported as “not” in the data set with C57BL/6J mice [1]; “ineffective” with C57BL/6J mice [3] (10 ng i.c.v.); “significantly decreased time spent in open arms; also recorded: increased significantly anxiety-like behavior; also recorded: increased anxiety levels” in the data set with C57BL/6J mice [3] (30 ng i.c.v.); “increased significantly anxiety-like behavior; also recorded: increased anxiety levels” in the data set on C57BL/6J mice [3] (100 ng i.c.v.); “increased significantly anxiety-like behavior; also recorded: increased anxiety levels” in the data set on C57BL/6J mice [3] (300 ng i.c.v.). Besides, the “biological potency at rCRFR1” value with rCRFR1 (cAMP accumulation, in words) is “high agonistic potency and high”. Besides, the “CRFR1-selectivity over CRFR2β, EC50(mCRFR2)/EC50(rCRFR1)” value in the data set with rCRFR1 (ratio of biological potencies (cAMP)) stood at 89. For the same substance, the “biological potency at mCRFR2β compared with rCRFR1” value with mCRFR2β is “about one to two orders of magnitude lower”. In data set [2], the maximal solubility cmax entry is recorded as “up to 1000 μM”. Further, the “locomotor activity (total distance crossed)” value in the data set on C57BL/6J mice [3] (10 ng i.c.v.) is “ineffective”; in the data set with C57BL/6J mice [3] (30 ng i.c.v.), “decreased significantly; also recorded: reduced locomotor activity”; with C57BL/6J mice [3] (100 ng i.c.v.), “decreased significantly; also recorded: reduced locomotor activity”; with C57BL/6J mice [3] (300 ng i.c.v.), “decreased significantly; also recorded: reduced locomotor activity”. Further, in the data set with C57BL/6J mice [3] (setting [5]), the “ability to modulate locomotor activity, cortagine vs oCRF” value is reported as “did not differ”. Besides, the “anxiogenic potency compared to oCRF” value with C57BL/6J mice [3] (setting [5]) is listed as “significantly higher anxiogenic potency; also recorded: doses lower than required of OCRF”. In addition, the “immobility time during the testswim session 24 h later (day 2)” value in the data set on C57BL/6J mice [4] (300 ng i.c.v. 30 min before preswim (day 1)) is “significantly reduced immobility time in comparison to oCRF-injected mice; also recorded: decrease of the immobility lime; also recorded: significant decrease”. In the data set with C57BL/6J mice [4] (300 ng i.c.v. 30 min before preswim (day 1), vs aCSF), the “immobility time during the preswim session” value was “significantly decreased the immobility time”. The “immobility time during the testswim session” value in the data set on C57BL/6J mice [4] (300 ng i.c.v. 30 min before testswim (day 2), vs aCSF) is “significantly decreased the immobility time”. In addition, the “floating time in the FST” value with C57BL/6J mice [4] (mice) is “reduced significantly”.
